Read-outs that look alike come from different tables or passages of the source.
Columns and labels:
MDR P. aeruginosa = assay: Enhanced killing: viable count over time; type: cell-based; settings: for killing effect of the agent individually: quinolone arginine salt 8 μg/ml, ceftazidime 8 and 16 μg/ml
Description: Table 4 results of efflux pump inhibition based cidal synergy between S-(−)-9-Fluoro-8-(4-hydroxy-piperidin-1-yl)-5-methyl-6,7-dihydro-1-oxo-1H,5H-benzo[i,j]quinolizine-2-carboxylic acid L-arginine salt tetrahydrate nd ceftazidime. Potent cidal synergy is observed between S-(−)-9-Fluoro-8-(4-hydroxy-piperidin-1-yl)-5-methyl-6,7-dihydro-1-oxo-1H,5H-benzo[i,j]quinolizine-2-carboxylic acid L-arginine salt tetrahydrate (concentration, 8 μg/ml) and ceftazidime (concentration, 8 and 16 μg/ml). These concentrations are at least 4 times lower than their MIC. […] Thus the efflux pump inhibition based synergy is not just growth inhibitory but also, most importantly, imparts extensive killing of the pathogen.

[1] = system: highly resistant P. aeruginosa strains; assay: MIC; type: cell-based; settings: highly resistant P. aeruginosa strains used for infecting animals
P. aeruginosa 23587 [2] = assay: Diameter of zone of inhibition of antimicrobial agents with or without efflux pump inhibitor; type: cell-based
Description: Since RND efflux pumps operate by utilizing energy in […], metabolic inhibitor, sodium azide brings about MDR RND pump inhibition by causing energy deprivation.

P. aeruginosa 23587 [3] = assay: Survival of high density inoculation in MHA medium; type: cell-based; settings: high density inoculation 2-5 × 10^9 CFU/ml
P. aeruginosa 2301 [4] = assay: Diameter of zone of inhibition of antimicrobial agents with or without efflux pump inhibitor; type: cell-based; settings: for Diameter of zone of inhibition: P. aeruginosa 2301
[5] = system: MDR clinical isolate of P. aeruginosa 2301; assay: Systemic infection in mice, % survival; type: in vivo; settings: for % survival: mice; for protection of infected animals, agent individually: quinolone arginine salt 50 mg/kg, ceftazidime 300 mg/kg
P. aeruginosa 2301 [6] = assay: Survival of high density inoculation in MHA medium; type: cell-based; settings: high density inoculation 2-5 × 10^9 CFU/ml; 20 mcg/ml in MHA medium
Description: In a most surprising manner, the combination of ceftazidime and azithromycin and tigecycline respectively brought about more than 7 log reduction in the bacterial count as compared to individual effects in highly resistant Pseudomonas strain. Moreover in a very unusual and surprising manner this tremendous bactericidal effect is taking place at concentrations much below than their individual inhibitory concentrations. […] It is also likely that ceftazidime interacts with outer membrane porins and acts as a porin modulator. Bacalum et al. have shown that ceftazidime binds to outer membrane porins with high affinity (Bacalum et al. Romanian. J. Biophys., 19, 105-116, 2009).

outer membrane porins = settings: Bacalum et al. 2009; cited from earlier work

SMILES: C[C@H]1CCc2c(N3CCC(O)CC3)c(F)cc3c(=O)c(C(=O)O)cn1c23.N=C(N)NCCC[C@H](N)C(=O)O.O.O.O.O [S-(−)-9-Fluoro-8-(4-hydroxy-piperidin-1-yl)-5-methyl-6,7-dihydro-1-oxo-1H,5H-benzo[i,j]quinolizine-2-carboxylic acid L-arginine salt tetrahydrate]
- viable count (MDR P. aeruginosa; 8 μg/ml, 0 h): 6.11 Log CFU/ ml
- viable count (MDR P. aeruginosa; 8 μg/ml, 24 h): 8.64 Log CFU/ ml
- viable count (MDR P. aeruginosa; 8 μg/ml, 48 h): 9.4 Log CFU/ ml
- viable count (MDR P. aeruginosa; 16 μg/ml, 0 h): 6.11 Log CFU/ ml
- viable count (MDR P. aeruginosa; 16 μg/ml, 24 h): 4.30 Log CFU/ ml
- viable count (MDR P. aeruginosa; 16 μg/ml, 48 h): <3.0 Log CFU/ ml
- killing effect of the agent individually (MDR P. aeruginosa): ineffective
- MIC [1]: 16 µg/mL
- change of activity on addition of sodium azide (P. aeruginosa 23587 [2]): potentiated
- change of activity in the presence of cefepime and ceftazidime (P. aeruginosa 23587 [2]; Example 3): significant potentiation
- Diameter of zone of inhibition (P. aeruginosa 23587 [2]; Table 1, P. aeruginosa 23587, +PAN (20 μg/ml), 4 μg/well): 30 m.m.
- Diameter of zone of inhibition (P. aeruginosa 23587 [2]; Table 1, P. aeruginosa 23587, +PAN (20 μg/ml), 8 μg/well): 34 m.m.
- Diameter of zone of inhibition (P. aeruginosa 23587 [2]; Table 1, P. aeruginosa 23587, +PAN (20 μg/ml), 16 μg/well): 35 m.m.
- Diameter of zone of inhibition (P. aeruginosa 23587 [2]; Table 1, P. aeruginosa 23587, Control, 4 μg/well): Nil
- Diameter of zone of inhibition (P. aeruginosa 23587 [2]; Table 1, P. aeruginosa 23587, Control, 8 μg/well): 12 m.m.
- Diameter of zone of inhibition (P. aeruginosa 23587 [2]; Table 1, P. aeruginosa 23587, Control, 16 μg/well): 15 m.m.
- Diameter of zone of inhibition (P. aeruginosa 23587 [2]; Table 2, P. aeruginosa (23587), +Reserpine (25 μg/ml), 8 μg/well): Nil
- Diameter of zone of inhibition (P. aeruginosa 23587 [2]; Table 2, P. aeruginosa (23587), +Reserpine (25 μg/ml), 16 μg/well): 11 m.m.
- Diameter of zone of inhibition (P. aeruginosa 23587 [2]; Table 2, P. aeruginosa (23587), +Reserpine (25 μg/ml), 32 μg/well): 15 m.m.
- Diameter of zone of inhibition (P. aeruginosa 23587 [2]; Table 2, P. aeruginosa (23587), +sodium azide (10 μg/ml), 8 μg/well): 12 m.m.
- Diameter of zone of inhibition (P. aeruginosa 23587 [2]; Table 2, P. aeruginosa (23587), +sodium azide (10 μg/ml), 16 μg/well): 15 m.m.
- Diameter of zone of inhibition (P. aeruginosa 23587 [2]; Table 2, P. aeruginosa (23587), +sodium azide (10 μg/ml), 32 μg/well): 20 m.m.
- Diameter of zone of inhibition (P. aeruginosa 23587 [2]; Table 2, P. aeruginosa (23587), Control, 8 μg/well): Nil
- Diameter of zone of inhibition (P. aeruginosa 23587 [2]; Table 2, P. aeruginosa (23587), Control, 16 μg/well): 11 m.m.
- Diameter of zone of inhibition (P. aeruginosa 23587 [2]; Table 2, P. aeruginosa (23587), Control, 32 μg/well): 15 m.m.
- Diameter of zone of inhibition (P. aeruginosa 23587 [2]; Table 3, P. aeruginosa 23587, +Cefepime (1 μg/ml), 8 μg/Well): 12 m.m.
- Diameter of zone of inhibition (P. aeruginosa 23587 [2]; Table 3, P. aeruginosa 23587, +Cefepime (1 μg/ml), 16 μg/Well): 18 m.m.
- Diameter of zone of inhibition (P. aeruginosa 23587 [2]; Table 3, P. aeruginosa 23587, +Cefepime (1 μg/ml), 32 μg/Well): 24 m.m.
- Diameter of zone of inhibition (P. aeruginosa 23587 [2]; Table 3, P. aeruginosa 23587, +Ceftazidime (1 μg/ml), 8 μg/Well): 20 m.m.
- Diameter of zone of inhibition (P. aeruginosa 23587 [2]; Table 3, P. aeruginosa 23587, +Ceftazidime (1 μg/ml), 16 μg/Well): 25 m.m.
- Diameter of zone of inhibition (P. aeruginosa 23587 [2]; Table 3, P. aeruginosa 23587, +Ceftazidime (1 μg/ml), 32 μg/Well): 33 m.m.
- Diameter of zone of inhibition (P. aeruginosa 23587 [2]; Table 3, P. aeruginosa 23587, Control, 8 μg/Well): 9 m.m.
- Diameter of zone of inhibition (P. aeruginosa 23587 [2]; Table 3, P. aeruginosa 23587, Control, 16 μg/Well): 14.5 m.m.
- Diameter of zone of inhibition (P. aeruginosa 23587 [2]; Table 3, P. aeruginosa 23587, Control, 32 μg/Well): 19.5 m.m.
- change of activity in the presence of PAN (P. aeruginosa 23587 [2]; clinical isolates P. aeruginosa 23587 and P. aeruginosa 2301): Synergistic enhancement
- CFU/ml at 48 h (P. aeruginosa 23587 [3]; 32 mcg/ml in MHA medium): >5 × 10^9 CFU/ml
- change of activity in the presence of cefepime and ceftazidime (P. aeruginosa 2301 [4]; Example 6): significant potentiation
- Diameter of zone of inhibition (P. aeruginosa 2301 [4]; Table 1, +PAN (20 μg/ml), 4 μg/well): 25 m.m.
- Diameter of zone of inhibition (P. aeruginosa 2301 [4]; Table 1, +PAN (20 μg/ml), 8 μg/well): 32 m.m.
- Diameter of zone of inhibition (P. aeruginosa 2301 [4]; Table 1, +PAN (20 μg/ml), 16 μg/well): 38 m.m.
- Diameter of zone of inhibition (P. aeruginosa 2301 [4]; Table 1, Control, 4 μg/well): 15.5 m.m.
- Diameter of zone of inhibition (P. aeruginosa 2301 [4]; Table 1, Control, 8 μg/well): 20 m.m.
- Diameter of zone of inhibition (P. aeruginosa 2301 [4]; Table 1, Control, 16 μg/well): 23.5 m.m.
- Diameter of zone of inhibition (P. aeruginosa 2301 [4]; Table 6, +Cefepime (2 μg/ml), 8 μg/Well): 12 m.m.
- Diameter of zone of inhibition (P. aeruginosa 2301 [4]; Table 6, +Cefepime (2 μg/ml), 16 μg/Well): 18 m.m.
- Diameter of zone of inhibition (P. aeruginosa 2301 [4]; Table 6, +Cefepime (2 μg/ml), 32 μg/Well): 24 m.m.
- Diameter of zone of inhibition (P. aeruginosa 2301 [4]; Table 6, +Ceftazidime (0.5 μg/ml), 8 μg/Well): 20 m.m.
- Diameter of zone of inhibition (P. aeruginosa 2301 [4]; Table 6, +Ceftazidime (0.5 μg/ml), 16 μg/Well): 25 m.m.
- Diameter of zone of inhibition (P. aeruginosa 2301 [4]; Table 6, +Ceftazidime (0.5 μg/ml), 32 μg/Well): 33 m.m.
- Diameter of zone of inhibition (P. aeruginosa 2301 [4]; Table 6, Control, 8 μg/Well): 9 m.m.
- Diameter of zone of inhibition (P. aeruginosa 2301 [4]; Table 6, Control, 16 μg/Well): 14.5 m.m.
- Diameter of zone of inhibition (P. aeruginosa 2301 [4]; Table 6, Control, 32 μg/Well): 19.5 m.m.
- % survival ([5]; Table 5, 50 mg/kg BID × 1 day, Subcutaneous): 0%
- % survival ([5]; Table 5, 75 mg/kg BID × 1 day, Subcutaneous): 33.3%
- % survival ([5]; Table 5, 100 mg/kg BID × 1 day, Subcutaneous): 100%
- protection of infected animals, agent individually [5]: could not protect

SMILES: CC(C)(O/N=C(\C(=O)N[C@@H]1C(=O)N2C(C(=O)[O-])=C(C[n+]3ccccc3)CS[C@H]12)c1csc(N)n1)C(=O)O [Ceftazidime, ceftazidime]
- viable count (MDR P. aeruginosa; 8 μg/ml, 0 h): 6.11 Log CFU/ ml
- viable count (MDR P. aeruginosa; 8 μg/ml, 24 h): 8.64 Log CFU/ ml
- viable count (MDR P. aeruginosa; 8 μg/ml, 48 h): 9.3 Log CFU/ ml
- viable count (MDR P. aeruginosa; 16 μg/ml, 0 h): 6.11 Log CFU/ ml
- viable count (MDR P. aeruginosa; 16 μg/ml, 24 h): 5.30 Log CFU/ ml
- viable count (MDR P. aeruginosa; 16 μg/ml, 48 h): 9.2 Log CFU/ ml
- killing effect of the agent individually (MDR P. aeruginosa): ineffective
- MIC ([1]; Pseudomonas aeruginosa, read-out: MIC): > 32 µg/mL
- CFU/ml at 48 h (P. aeruginosa 2301 [6]): >5 × 10^9 CFU/ml
- inhibition of MDR RND efflux pumps, concluded from potentiation (P. aeruginosa 23587 [2]; clinical isolates of P. aeruginosa): inhibit RND pumps
- CFU/ml at 48 h (P. aeruginosa 23587 [3]; 64 mcg/ml in MHA medium): >5 × 10^9 CFU/ml
- binding to outer membrane porins (outer membrane porins): high affinity
- % survival ([5]; Table 5, 300 mg/kg BID × 1 day, Subcutaneous): 16.6%
- % survival ([5]; Table 7, 100 mg/kg BID × 1 day, Oral): 16.6%
- % survival ([5]; Table 7, 200 mg/kg BID × 1 day, Oral): 16.6%
- protection of infected animals, agent individually [5]: could not protect

Source: patent publication US20130296228A1, “EFFLUX PUMP INHIBITORS” (priority 2010, published 2013)
